# Source: publication PMC8838936, “Simultaneous Determination of Seven Lipophilic and Hydrophilic Components in Salvia miltiorrhiza Bunge by LC-MS/MS Method and Its Application to a Transport Study in a Blood-Brain-Barrier Cell Model” (Molecules, 2022)
# Test system: endothelial cell monolayers
# Experiment: not given
# Design: method as in PMID 17504224
# Conditions: facilitated efflux from the abluminal side to luminal side; cited from earlier work
row,Compound,Transport of CTS in endothelial cell monolayers
1,"C[C@H]1COC2=C1C(=O)C(=O)c1c2ccc2c1CCCC2(C)C [CTS, cryptotanshinone]",polarized transport

# Test system: not listed separately
# Experiment: Stability of analytes in HBSS (autosampler 24 h; −80 °C 15 days)
# Format: physicochemical
# Conditions: HBSS system
# Method: Stability was evaluated by analyzing LQC, MQC, and HQC concentrations at autosampler for 24 h and −80 °C for 15 days with five replicates. Stability was expressed in terms of accuracy (RE) and coefficient of variation (RSD). The samples were considered stable if accuracy (RE) was within ±15% of the nominal values and precision (RSD) was less than 15%.
row,Stability in HBSS (in words),Compound
1,very unstable,CCC(C)(C)C(=O)O[C@H]1C[C@@H](C)C=C2C=C[C@H](C)[C@H](CC[C@@H]3C[C@@H](O)CC(=O)O3)[C@H]21 [simvastatin]

# Test system: BBB
# Experiment: not given
# Design: method as in PMID 26683637
# Conditions: cited from earlier work
row,Compound,Effect on disruption of the BBB
1,"Cc1coc2c1C(=O)C(=O)c1c-2ccc2c1CCCC2(C)C [TS IIA, tanshinone IIA]",suppress disruption of the BBB

# Test system: not listed separately
# Experiment: Transport study in a BBB cell model (bidirectional transwell permeability)
# Format: in vitro ADME, Human
# Conditions: human; ER = Papp (BL-AP)/Papp (AP-BL), BBB cell model
# Method: (§1) The hBMECs cells were seeded at a density of 3 × 10^5 cells per well on the transwell plates in EMC. Apical side volumes were 0.5 mL, and the medium was changed every day. Basal side volumes were 1.5 mL, and the medium was changed every other day. The medium was changed until confluent monolayers were formed. […] TEER provides information on ion current resistance across cell monolayers related to the integrity of tight junctions between cells. When the TEER reached the maximum value, the cell monolayer was used for the transport assay.
# (§2) The permeability experiments were carried out bi-directionally, with working solutions containing one test component, TSI (1.25 μg/mL), DTSI (0.15 μg/mL), CTS (1.25 μg/mL), CFA (10 μg/mL), PAL (10 μg/mL), and PCTA (20 μg/mL). Aliquots of the […] compartment were collected after several time points (15, 30, 60, and 120 min) and replaced with drug-free assay buffer. The transwell plates were incubated on an orbital shaker at 37 °C for the entire experimental time. All experiments were performed in triplicate, and withdrawn samples were stored in −80 °C fridge before LC-MS/MS analysis.
# (§3) For the BBB cell model, the apparent permeability coefficient, Papp in apical-to-basolateral (AP-BL) or basolateral-to-apical (BL-AP) direction, and efflux rate of each component were subsequently calculated according to the following equation: Papp = {dQ/dt} × {1/ (A × C0)},(1) where Q is the accumulation quantity of the compound in the receiver side (μg), dQ /dt is the rate of appearance of the compound in the receiver side (μg /s), C0 is the initial concentration in the donor side […], and A is the surface area of the membrane insert (cm^2). Furthermore, efflux ratios (ER) were calculated according to the following equation: ER = Papp (BL-AP)/Papp (AP-BL),(2) where Papp (BL-AP) and Papp (AP-BL) are the Papp values in the direction basolateral-to-apical and apical-to-basolateral, respectively.
row,Compound,efflux ratio at 120 min
1,"O=C(O)/C=C/c1ccc(O)c(O)c1 [CFA, caffeic acid]",1.05
2,"O=Cc1ccc(O)c(O)c1 [PAL, protocatechuic aldehyde]",0.805
3,"Cc1coc2c1C(=O)C(=O)c1c-2ccc2c1CCCC2(C)C [TS IIA, tanshinone IIA]",0.673
4,"O=C(O)c1ccc(O)c(O)c1 [PCTA, protocatechuic acid]",0.946
5,"C[C@H]1COC2=C1C(=O)C(=O)c1c2ccc2c1CCCC2(C)C [CTS, cryptotanshinone]",1.03
6,"Cc1cccc2c3c(ccc12)C1=C(C(=O)C3=O)[C@@H](C)CO1 [DTS I, dihydrotanshinone I]",0.779

# Same assay, conditions: human; hBMEC monolayer on transwell, basolateral-to-apical, within 120 min, 37 °C, Mean ± SD, n = 3
row,Compound,Papp B→A at 120 min
1,"O=C(O)/C=C/c1ccc(O)c(O)c1 [CFA, caffeic acid]",225 nm/s
2,"O=Cc1ccc(O)c(O)c1 [PAL, protocatechuic aldehyde]",122 nm/s
3,"Cc1coc2c1C(=O)C(=O)c1c-2ccc2c1CCCC2(C)C [TS IIA, tanshinone IIA]",0.253 nm/s
4,"O=C(O)c1ccc(O)c(O)c1 [PCTA, protocatechuic acid]",413 nm/s
5,"C[C@H]1COC2=C1C(=O)C(=O)c1c2ccc2c1CCCC2(C)C [CTS, cryptotanshinone]",51.2 nm/s
6,"Cc1cccc2c3c(ccc12)C1=C(C(=O)C3=O)[C@@H](C)CO1 [DTS I, dihydrotanshinone I]",36.2 nm/s

# Test system: hBMEC cell monolayer (BBB cell model)
# Experiment: as above
# Format: in vitro ADME, Human
# Conditions: BBB cell model, within 120 min
# Method: as §1, §2, §3
row,Compound,Absorption in the BBB model (class by Papp (AP-BL))
1,"O=C(O)/C=C/c1ccc(O)c(O)c1 [CFA, caffeic acid]",easily absorbed
2,"O=Cc1ccc(O)c(O)c1 [PAL, protocatechuic aldehyde]",easily absorbed
3,"Cc1coc2c1C(=O)C(=O)c1c-2ccc2c1CCCC2(C)C [TS IIA, tanshinone IIA]",difficult to be absorbed
4,"O=C(O)c1ccc(O)c(O)c1 [PCTA, protocatechuic acid]",easily absorbed
5,"C[C@H]1COC2=C1C(=O)C(=O)c1c2ccc2c1CCCC2(C)C [CTS, cryptotanshinone]",moderate absorption
6,"Cc1cccc2c3c(ccc12)C1=C(C(=O)C3=O)[C@@H](C)CO1 [DTS I, dihydrotanshinone I]",moderate absorption
